8 compounds from ChEMBL document CHEMBL1255382, “Genetic mapping of targets mediating differential chemical phenotypes in Plasmodium falciparum” (Nat Chem Biol, 2009) can be followed below.

In assay [1] the test system is Plasmodium falciparum. Briefly: microbe, parasite or virus in culture. Format: functional, organism-based, W2. To be noted: for IC50: Plasmodium falciparum, W2, 72 h.
Description: Antiplasmodial activity against Plasmodium falciparum W2 after 72 hrs by SYBR green assay
For assay [2], the system named is Plasmodium falciparum. Description: microbe, parasite or virus in culture. To be noted: D10, 72 h.
Description: Antiplasmodial activity against Plasmodium falciparum D10 after 72 hrs by SYBR green assay
In assay [3] the test system is Plasmodium falciparum. Briefly: microbe, parasite or virus in culture. To be noted: Dd2, 72 h.
Description: Antiplasmodial activity against Plasmodium falciparum Dd2 after 72 hrs by SYBR green assay
Assay [4] deals with Plasmodium falciparum. Briefly: microbe, parasite or virus in culture. To be noted: HB3, 72 h.
Description: Antiplasmodial activity against Plasmodium falciparum HB3 after 72 hrs by SYBR green assay
Assay [5] has as its system Plasmodium falciparum. Briefly: microbe, parasite or virus in culture. Type of assay: functional, organism-based. To be noted: GB4, 72 h.
Description: Antiplasmodial activity against Plasmodium falciparum GB4 after 72 hrs by SYBR green assay
Assay [6] relates to Plasmodium falciparum. Briefly: microbe, parasite or virus in culture. Type of assay: functional, organism-based. To be noted: 7G8, 72 h.
Description: Antiplasmodial activity against Plasmodium falciparum 7G8 after 72 hrs by SYBR green assay
Assay [7] relates to Plasmodium falciparum. Briefly: microbe, parasite or virus in culture. Type of assay: functional, organism-based. To be noted: 3D7, 72 h.
Description: Antiplasmodial activity against Plasmodium falciparum 3D7 after 72 hrs by SYBR green assay
Assay [8] deals with Plasmodium falciparum. Description: microbe, parasite or virus in culture. To be noted: JF11, 72 h.
Description: Antiplasmodial activity against Plasmodium falciparum JF11 after 72 hrs by SYBR green assay
The subject of assay [9] is Plasmodium falciparum. Description: microbe, parasite or virus in culture. To be noted: D2, 72 h.
Description: Antiplasmodial activity against Plasmodium falciparum D2 after 72 hrs by SYBR green assay
Assay [10] relates to Plasmodium falciparum. Briefly: microbe, parasite or virus in culture. To be noted: JB8, 72 h.
Description: Antiplasmodial activity against Plasmodium falciparum JB8 after 72 hrs by SYBR green assay
Assay [11] deals with Plasmodium falciparum. Description: microbe, parasite or virus in culture. To be noted: DEV, 72 h.
Description: Antiplasmodial activity against Plasmodium falciparum DEV after 72 hrs by SYBR green assay
The test system of assay [12] is Plasmodium falciparum. Description: microbe, parasite or virus in culture. To be noted: KA6, 72 h.
Description: Antiplasmodial activity against Plasmodium falciparum KA6 after 72 hrs by SYBR green assay
Assay [13] deals with Plasmodium falciparum. Description: microbe, parasite or virus in culture. To be noted: WC4, 72 h.
Description: Antiplasmodial activity against Plasmodium falciparum WC4 after 72 hrs by SYBR green assay
The subject of assay [14] is Plasmodium falciparum. Briefly: microbe, parasite or virus in culture. To be noted: XG10, 72 h.
Description: Antiplasmodial activity against Plasmodium falciparum XG10 after 72 hrs by SYBR green assay
For assay [15], the system named is Plasmodium falciparum. Description: microbe, parasite or virus in culture. To be noted: 7G8, 72 h.
Description: Antiplasmodial activity against Plasmodium falciparum 7G8 harboring polymorphic DHFR after 72 hrs by SYBR green assay
In assay [16] the test system is Plasmodium falciparum. Description: microbe, parasite or virus in culture. To be noted: WF12, 72 h.
Description: Antiplasmodial activity against Plasmodium falciparum WF12 after 72 hrs by SYBR green assay
Assay [17] has as its system Plasmodium falciparum. Description: microbe, parasite or virus in culture. To be noted: KB8, 72 h.
Description: Antiplasmodial activity against Plasmodium falciparum KB8 after 72 hrs by SYBR green assay
Assay [18] deals with Plasmodium falciparum. Briefly: microbe, parasite or virus in culture. To be noted: Dd2, 72 h. This is another data set of the same source.
Description: Antiplasmodial activity against Plasmodium falciparum Dd2 harboring polymorphic DHFR after 72 hrs by SYBR green assay
In assay [19] the test system is Plasmodium falciparum. Description: microbe, parasite or virus in culture. To be noted: XB3, 72 h.
Description: Antiplasmodial activity against Plasmodium falciparum XB3 after 72 hrs by SYBR green assay
Assay [20] has as its system Plasmodium falciparum. Briefly: microbe, parasite or virus in culture. To be noted: NF10, 72 h.
Description: Antiplasmodial activity against Plasmodium falciparum NF10 after 72 hrs by SYBR green assay
The subject of assay [21] is Plasmodium falciparum. Briefly: microbe, parasite or virus in culture. To be noted: HB3, 72 h. The source holds these as a separate data set.
Description: Antiplasmodial activity against Plasmodium falciparum HB3 harboring polymorphic DHFR after 72 hrs by SYBR green assay
Assay [22] deals with Plasmodium falciparum. Description: microbe, parasite or virus in culture. To be noted: TF1, 72 h.
Description: Antiplasmodial activity against Plasmodium falciparum TF1 after 72 hrs by SYBR green assay
For assay [23], the system named is Plasmodium falciparum. Description: microbe, parasite or virus in culture. To be noted: W2, 72 h.
Description: Antiplasmodial activity against Plasmodium falciparum W2 harboring polymorphic DHFR after 72 hrs by SYBR green assay
For assay [24], the system named is Plasmodium falciparum. Briefly: microbe, parasite or virus in culture. To be noted: AUD, 72 h.
Description: Antiplasmodial activity against Plasmodium falciparum AUD after 72 hrs by SYBR green assay
The subject of assay [25] is Plasmodium falciparum. Description: microbe, parasite or virus in culture. To be noted: XD8, 72 h.
Description: Antiplasmodial activity against Plasmodium falciparum XD8 after 72 hrs by SYBR green assay
Assay [26] deals with Plasmodium falciparum. Description: microbe, parasite or virus in culture. To be noted: GB4, 72 h.
Description: Antiplasmodial activity against Plasmodium falciparum GB4 harboring polymorphic DHFR after 72 hrs by SYBR green assay
The subject of assay [27] is Plasmodium falciparum. Briefly: microbe, parasite or virus in culture. To be noted: KC2, 72 h.
Description: Antiplasmodial activity against Plasmodium falciparum KC2 after 72 hrs by SYBR green assay
Assay [28] has as its system Plasmodium falciparum. Briefly: microbe, parasite or virus in culture. To be noted: AL2, 72 h.
Description: Antiplasmodial activity against Plasmodium falciparum AL2 after 72 hrs by SYBR green assay
Assay [29] deals with Plasmodium falciparum. Briefly: microbe, parasite or virus in culture. To be noted: JB12, 72 h.
Description: Antiplasmodial activity against Plasmodium falciparum JB12 after 72 hrs by SYBR green assay
Assay [30] deals with Plasmodium falciparum. Description: microbe, parasite or virus in culture. To be noted: JC9, 72 h.
Description: Antiplasmodial activity against Plasmodium falciparum JC9 after 72 hrs by SYBR green assay
Assay [31] concerns Plasmodium falciparum. Description: microbe, parasite or virus in culture. To be noted: Dd2, 72 h. The source holds these as a separate data set.
Description: Antiplasmodial activity against transgenic Plasmodium falciparum Dd2 pDT harboring polymorphic DHFR after 72 hrs by SYBR green assay
In assay [32] the test system is Plasmodium falciparum. Description: microbe, parasite or virus in culture. To be noted: JON, 72 h.
Description: Antiplasmodial activity against Plasmodium falciparum JON after 72 hrs by SYBR green assay
The test system of assay [33] is Plasmodium falciparum. Description: microbe, parasite or virus in culture. To be noted: XF12, 72 h.
Description: (§1) Antiplasmodial activity against Plasmodium falciparum XF12 after 72 hrs by SYBR green assay
For assay [34], the system named is Plasmodium falciparum. Briefly: microbe, parasite or virus in culture. To be noted: NIC, 72 h.
Description: Antiplasmodial activity against Plasmodium falciparum NIC after 72 hrs by SYBR green assay
The test system of assay [35] is Plasmodium falciparum. Description: microbe, parasite or virus in culture. To be noted: KH7, 72 h.
Description: Antiplasmodial activity against Plasmodium falciparum KH7 after 72 hrs by SYBR green assay
In assay [36] the test system is Plasmodium falciparum. Briefly: microbe, parasite or virus in culture. To be noted: LC12, 72 h.
Description: Antiplasmodial activity against Plasmodium falciparum LC12 after 72 hrs by SYBR green assay
Assay [37] concerns Plasmodium falciparum. Briefly: microbe, parasite or virus in culture. To be noted: WE2, 72 h.
Description: Antiplasmodial activity against Plasmodium falciparum WE2 after 72 hrs by SYBR green assay
Assay [38] deals with Plasmodium falciparum. Briefly: microbe, parasite or virus in culture. To be noted: XE7, 72 h.
Description: Antiplasmodial activity against Plasmodium falciparum XE7 after 72 hrs by SYBR green assay
Assay [39] concerns Plasmodium falciparum. Briefly: microbe, parasite or virus in culture. To be noted: DAN, 72 h.
Description: Antiplasmodial activity against Plasmodium falciparum DAN after 72 hrs by SYBR green assay
Assay [40] has as its system Plasmodium falciparum. Briefly: microbe, parasite or virus in culture. To be noted: HB3 pDT, 72 h.
Description: Antiplasmodial activity against transgenic Plasmodium falciparum HB3 pDT harboring polymorphic DHFR after 72 hrs by SYBR green assay
Assay [41] concerns Plasmodium falciparum. Description: microbe, parasite or virus in culture. To be noted: JH6, 72 h.
Description: Antiplasmodial activity against Plasmodium falciparum JH6 after 72 hrs by SYBR green assay
Assay [42] deals with Plasmodium falciparum. Description: microbe, parasite or virus in culture. To be noted: KC5, 72 h.
Description: Antiplasmodial activity against Plasmodium falciparum KC5 after 72 hrs by SYBR green assay
Assay [43] deals with Plasmodium falciparum. Briefly: microbe, parasite or virus in culture. To be noted: D10, 72 h. This is another data set of the same source.
Description: Antiplasmodial activity against Plasmodium falciparum D10 harboring polymorphic DHFR after 72 hrs by SYBR green assay
The test system of assay [44] is Plasmodium falciparum. Briefly: microbe, parasite or virus in culture. To be noted: LA10, 72 h.
Description: Antiplasmodial activity against Plasmodium falciparum LA10 after 72 hrs by SYBR green assay
Assay [45] concerns Plasmodium falciparum.
Description: as §1
The test system of assay [46] is Plasmodium falciparum. Briefly: microbe, parasite or virus in culture. To be noted: QF5, 72 h.
Description: Antiplasmodial activity against Plasmodium falciparum QF5 after 72 hrs by SYBR green assay
Assay [47] relates to Plasmodium falciparum. Briefly: microbe, parasite or virus in culture. To be noted: JC3, 72 h.
Description: Antiplasmodial activity against Plasmodium falciparum JC3 after 72 hrs by SYBR green assay
Assay [48] relates to Plasmodium falciparum. Briefly: Antiplasmodial activity against Plasmodium falciparum CDY harboring modified mdr1 protein after 72 hrs by SYBR green assay in presence of 0.8 uM P-gp inhibitor verapamil. Format: functional, organism-based. To be noted: MDR1, 72 h.

Structures are written as SMILES. Counter-ions that a name gives are not always drawn.

In the case of `CCCNC[C@H](O)COc1ccccc1C(=O)CCc1ccccc1`, in [1], the IC50 turned out to be 0.28 µM.
As for `CCN(CC)CCNC(=O)c1cc(Cl)c(N)cc1OC.Cl`, the pIC25 in [1] came to 4.9.
In the case of `Nc1ccc(-c2nc3ccc(-c4nc5ccc(N)cc5[nH]4)cc3[nH]2)cc1`, the IC50 in assay [2] is 0.74 µM; in assay [1], 0.22 µM; in [3], 1 µM; in assay [4], 0.83 µM; in assay [5], 0.74 µM; in [6] it was 0.52 µM. This compound showed an IC50 in assay [7] of 0.28 µM.
`Nc1nc(N)c2nc(-c3ccccc3)c(N)nc2n1`: the IC50 in [8] was determined as 5.11 µM; in assay [9] it was 22.2 µM; in assay [10] it was 49.4 µM; in assay [11], 60.5 µM; in assay [12], 5.19 µM; in assay [13], 52.5 µM. Besides, the IC50 was found to be 8.13 µM in [14]; 154 µM in assay [15]; 5.83 µM in [16]; 56.3 µM in assay [17]; 141 µM in assay [18]; 57 µM in assay [19]. The IC50 in [20] was determined as 75.1 µM; in assay [6], 51.7 µM; in assay [21] it was 176 µM; in assay [22] it was 8.82 µM; in assay [23], 95 µM; in [24], 54.2 µM. Besides, the IC50 was 59.8 µM in assay [25]; 5.3 µM in assay [26]; 60.4 µM in assay [27]; 81.8 µM in assay [28]; 65.1 µM in assay [29]; 43.7 µM in assay [30]. For the same compound, the IC50 is 4 µM in [31]; 3.29 µM in assay [32]; 17.1 µM in assay [33]; 11.2 µM in assay [34]; 15 µM in [35]; 50.1 µM in [36]. Further, the IC50 was determined as 44.6 µM in assay [37]; 18.1 µM in assay [38]; 69.5 µM in assay [39]; 95 µM in assay [40]; 64.8 µM in assay [41]; 73.5 µM in assay [42]. Moreover, the IC50 in assay [43] is 70 µM; in assay [44], 5.59 µM; in [45], 17.1 µM; in [46] it was 3.54 µM; in assay [47], 4.26 µM.
Turning to `CN1C[C@H](C(=O)N[C@]2(C)O[C@@]3(O)[C@@H]4CCCN4C(=O)[C@H](Cc4ccccc4)N3C2=O)C[C@@H]2c3cccc4[nH]cc(c34)C[C@H]21` (stereo in doubt; 1) [DIHYDROERGOTAMINE MESYLATE], the IC50 in [48] is 0.022 µM.
On to `CC[C@@]1(O)C(=O)OCc2c1cc1n(c2=O)Cc2cc3ccccc3nc2-1` [CAMPTOTHECIN], for which the IC50 in assay [2] is 1.12 µM; in assay [1], 0.56 µM; in assay [3], 1.32 µM; in assay [4], 0.89 µM; in assay [5], 0.89 µM; in assay [6] it was 1.41 µM. Also, in [7], the IC50 was determined as 0.83 µM.
`Cc1cc(N)c2ccccc2[n+]1CCCCCCCCCC[n+]1c(C)cc(N)c2ccccc21` [DEQUALINIUM CHLORIDE]: the IC50 in assay [2] and in assay [4] was 0.1 µM in each case.
As for `COc1cc(Cc2cnc(N)nc2N)cc(OC)c1OC` [TRIMETHOPRIM], the IC50 in [15] was 194 µM; in [18], 169 µM; in assay [21] it was 158 µM; in assay [26], 4.1 µM; in [40] it was 117 µM.
